From patent US10711000B2 (Fronthera U.S. Pharmaceuticals LLC, priority 2018, dated 2020) come the findings set out here.

Read-outs that look alike come from different tables or passages of the source.

For data set [1], the target named is T1, Autotaxin (Homo sapiens, UniProt Q13822).
T1 construct: from tissue; host or cells: pooled human plasma
The experiment in a line: LPA formation in pooled human plasma (ex vivo autotaxin inhibition). Format: biochemical. Conditions: 2 hours incubation. The essentials:
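Pooled human plasma incubated 2 h with various compound concentrations; LPA 18:2 and 20:4 quantified by LC/MS/MS (negative-ion MRM, LPA17:0 internal standard) after butanol extraction. Inhibition of LPA formation relative to untreated plasma; IC50 by non-linear regression.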

In data set [2] the target is T2, CYP 1A2 (Homo sapiens, UniProt P05177).
T2 construct: from tissue; host or cells: human liver microsomes
T2 sequence (P05177 1-516): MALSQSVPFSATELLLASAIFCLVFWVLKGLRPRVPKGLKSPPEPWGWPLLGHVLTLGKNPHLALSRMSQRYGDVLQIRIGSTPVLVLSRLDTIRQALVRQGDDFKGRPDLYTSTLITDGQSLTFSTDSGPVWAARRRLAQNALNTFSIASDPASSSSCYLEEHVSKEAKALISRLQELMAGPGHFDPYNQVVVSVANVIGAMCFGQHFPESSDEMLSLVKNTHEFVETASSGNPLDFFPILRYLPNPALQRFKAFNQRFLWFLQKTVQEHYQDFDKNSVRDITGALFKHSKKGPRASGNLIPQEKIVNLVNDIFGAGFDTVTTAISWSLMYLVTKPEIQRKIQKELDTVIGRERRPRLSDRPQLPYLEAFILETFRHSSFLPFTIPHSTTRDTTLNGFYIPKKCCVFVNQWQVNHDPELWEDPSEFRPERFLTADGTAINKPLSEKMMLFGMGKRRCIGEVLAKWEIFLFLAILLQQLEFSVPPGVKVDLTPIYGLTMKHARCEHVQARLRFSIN
The experiment in a line: CYP inhibition in human liver microsome. Type of data set: in vitro ADME. Particulars: human liver microsomes, substrate phenacetin (10 μM); compounds diluted 1:3 starting at 50 μM; read-out: IC50 in CYP isozyme 1A2. The method, then:
(§1) Test compounds were evaluated for CYP inhibition using human liver microsomes (HLM). Test compounds were 1:3 serially diluted starting at 50 μM to generate 7 different concentrations. After incubation of diluted test compounds with HLM, a substrate cocktail composed of phenacetin (10 μM), amodiaquine (2 μM), diclofenac (5 μM), s-mephenytoin (30 μM), dextromethorphan (5 μM), and midazolam (2 μM) was added to check the remaining CYP activity for CYP 1A2, 2C8, 2C9, 2C19, 2D6 and 3A4. The CYP activity was measured by detecting the peak area of individual metabolites of know CYP substrates using LC/MS/MS. A percentage of inhibition of CYP was calculated at each final concentration of test compound, through which an IC50 was fitted to represent the inhibition potential.
For orientation: Liver microsomes are vesicles of endoplasmic reticulum, rich in cytochrome P450 enzymes.

Data set [3] deals with T3, CYP 2C19 (Homo sapiens, UniProt P33261).
T3 construct: from tissue; host or cells: human liver microsomes
Briefly: CYP inhibition in human liver microsome. Particulars: human liver microsomes, substrate s-mephenytoin (30 μM); compounds diluted 1:3 starting at 50 μM; read-out: IC50 in CYP isozyme 2C19. Format: in vitro ADME. The method, then:
as §1

Data set [4] deals with T4, CYP 2C9 (Homo sapiens, UniProt P11712).
T4 construct: from tissue; host or cells: human liver microsomes
Briefly: CYP inhibition in human liver microsome. Format: in vitro ADME. Conditions: human liver microsomes, substrate diclofenac (5 μM); compounds diluted 1:3 starting at 50 μM; read-out: IC50 in CYP isozyme 2C9. The method, then:
as §1

Data set [5] deals with T5, CYP 2D6 (Homo sapiens, UniProt P10635).
T5 construct: from tissue; host or cells: human liver microsomes
Briefly: CYP inhibition in human liver microsome. Conditions: human liver microsomes, substrate dextromethorphan (5 μM); compounds diluted 1:3 starting at 50 μM; read-out: IC50 in CYP isozyme 2D6. Format: in vitro ADME. The method, then: as §1

Data set [6] concerns the target T6, CYP 3A4 (Homo sapiens, UniProt P08684).
T6 construct: from tissue; host or cells: human liver microsomes
Briefly: CYP inhibition in human liver microsome. Format: in vitro ADME. Particulars: human liver microsomes, substrate midazolam (2 μM); compounds diluted 1:3 starting at 50 μM; read-out: IC50 in CYP isozyme 3A4. The protocol:
as §1

Data set [7] can be described thus: Metabolic stability in liver microsomes. Type of data set: in vitro ADME. Conditions: compound 1 μM; for metabolic stability (halftime in minutes), Dog: Beagle dog liver microsomes; for metabolic stability (halftime in minutes), Mouse: CD-1 mouse liver microsomes; for metabolic stability (halftime in minutes), Monkey: Cynomolgus monkey liver microsomes; for metabolic stability (halftime in minutes), Rat: SD rat liver microsomes. The protocol: The metabolic stability was examined in human, rat, mouse, dog and cynomolgus monkey liver microsomes. Compound (1 μM) was mixed with diluted liver microsomes from each of the 5 species and a small aliquot was taken at 0, 5, 10, 20, 30 and 60 minutes for HPLC MS/MS analysis. Intrinsic clearance and half-life were calculated.

Data set [8] in a line: Pharmacokinetics in beagle dogs. Conditions: male, dog, plasma, iv, I.V. (1 mg/kg). Format: in vivo.
A short description of data set [9]: Pharmacokinetics in cynomolgus monkeys. Format: in vivo. Conditions: male, cynomolgus monkey, plasma, iv, I.V. (1 mg/kg).
Setting [10] is: LPA 18:2 by LC/MS/MS, read-out: LPA formation (18:2) (IC50).
Setting [11] is: LPA 20:4 by LC/MS/MS, read-out: LPA formation (20:4) (IC50).

T6 sequence (P08684 whole entry): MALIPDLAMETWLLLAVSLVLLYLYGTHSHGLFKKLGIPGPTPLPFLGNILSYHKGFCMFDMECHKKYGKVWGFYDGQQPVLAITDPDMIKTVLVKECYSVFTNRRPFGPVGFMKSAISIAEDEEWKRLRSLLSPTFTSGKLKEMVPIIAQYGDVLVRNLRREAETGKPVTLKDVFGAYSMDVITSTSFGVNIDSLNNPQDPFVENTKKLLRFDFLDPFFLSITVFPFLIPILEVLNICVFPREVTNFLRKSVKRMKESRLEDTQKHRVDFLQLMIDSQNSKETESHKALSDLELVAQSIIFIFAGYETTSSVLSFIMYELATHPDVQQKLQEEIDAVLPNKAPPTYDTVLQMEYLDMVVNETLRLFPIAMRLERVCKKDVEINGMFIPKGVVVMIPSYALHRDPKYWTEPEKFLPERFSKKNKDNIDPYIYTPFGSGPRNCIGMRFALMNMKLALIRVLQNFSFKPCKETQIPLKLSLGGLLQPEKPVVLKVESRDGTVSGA
T4 sequence (P11712 whole entry): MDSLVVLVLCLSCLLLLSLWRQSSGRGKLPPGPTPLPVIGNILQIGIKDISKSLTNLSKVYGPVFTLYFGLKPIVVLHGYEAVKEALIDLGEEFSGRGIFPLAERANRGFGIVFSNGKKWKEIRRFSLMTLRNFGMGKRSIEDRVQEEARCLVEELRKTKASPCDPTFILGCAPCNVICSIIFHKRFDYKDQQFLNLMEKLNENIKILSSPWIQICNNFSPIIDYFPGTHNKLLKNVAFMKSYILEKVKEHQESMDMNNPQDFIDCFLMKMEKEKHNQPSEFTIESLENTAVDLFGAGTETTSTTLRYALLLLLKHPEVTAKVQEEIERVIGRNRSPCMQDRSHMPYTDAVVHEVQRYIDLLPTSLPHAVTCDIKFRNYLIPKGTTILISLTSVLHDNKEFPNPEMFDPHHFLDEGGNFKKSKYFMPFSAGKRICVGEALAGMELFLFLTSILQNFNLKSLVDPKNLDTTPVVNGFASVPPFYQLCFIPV
T5 sequence (P10635 whole entry): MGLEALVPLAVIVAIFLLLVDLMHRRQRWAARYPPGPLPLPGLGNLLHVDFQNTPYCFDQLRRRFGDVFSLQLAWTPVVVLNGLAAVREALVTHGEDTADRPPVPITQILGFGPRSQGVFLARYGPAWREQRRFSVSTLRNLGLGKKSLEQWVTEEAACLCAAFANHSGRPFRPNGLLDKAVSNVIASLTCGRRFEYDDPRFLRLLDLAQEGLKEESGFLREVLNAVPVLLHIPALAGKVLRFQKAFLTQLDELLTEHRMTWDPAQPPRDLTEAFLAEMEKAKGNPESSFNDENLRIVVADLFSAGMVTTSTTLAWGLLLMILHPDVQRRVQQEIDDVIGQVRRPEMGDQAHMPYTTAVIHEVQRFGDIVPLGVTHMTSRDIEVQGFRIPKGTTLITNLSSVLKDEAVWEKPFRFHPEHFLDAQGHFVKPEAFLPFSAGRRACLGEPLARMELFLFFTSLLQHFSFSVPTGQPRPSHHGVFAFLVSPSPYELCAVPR
T3 sequence (P33261 whole entry): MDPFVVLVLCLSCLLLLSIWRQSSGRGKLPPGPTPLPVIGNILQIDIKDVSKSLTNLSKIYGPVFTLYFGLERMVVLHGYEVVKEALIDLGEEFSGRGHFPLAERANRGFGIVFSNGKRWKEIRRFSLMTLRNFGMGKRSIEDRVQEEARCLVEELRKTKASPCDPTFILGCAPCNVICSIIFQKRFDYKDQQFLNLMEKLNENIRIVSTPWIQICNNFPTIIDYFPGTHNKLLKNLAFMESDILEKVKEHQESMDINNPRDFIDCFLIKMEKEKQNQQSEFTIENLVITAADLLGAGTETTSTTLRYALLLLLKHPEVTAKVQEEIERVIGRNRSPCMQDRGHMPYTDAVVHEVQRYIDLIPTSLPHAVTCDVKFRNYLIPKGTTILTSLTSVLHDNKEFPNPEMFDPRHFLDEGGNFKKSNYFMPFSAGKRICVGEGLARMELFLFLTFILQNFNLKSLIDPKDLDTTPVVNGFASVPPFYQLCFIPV

What is called IC50 is the midpoint of a concentration-inhibition curve. Usually AUC stands for the area under the concentration-time curve, a measure of exposure. As a reminder, the clearance is the rate of elimination divided by the concentration. Usually half-life stands for the time in which the quantity being followed falls by half. Consider `CCc1nn2cc(F)c(N3CC4(CN(C(=O)[C@H]5CCOC5)C4)C3)cc2c1N(C)c1nc(-c2ccc(F)cc2)c(C#N)s1` [Example 102, 2-[[2-ethyl-6-fluoro-5-[2-[(3S)-tetrahydrofuran-3-carbonyl]-2,6-diazaspiro[3.3]heptan-6-yl]pyrazolo[1,5-a]pyridin-3-yl]-methyl-amino]-4-(4-fluorophenyl)thiazole-5-carbonitrile], for which the IC50 in [1] (setting [10]) is ≤ 0.1 µM. Moreover, the IC50 in [1] (setting [11]) was ≤ 0.1 µM. The half-inhibitory concentration (IC50) in [2] is 13.9 µM. Besides, the half-inhibitory concentration (IC50) in data set [3] amounted to 11.9 µM. Also, the half-maximal inhibitory concentration (IC50) in [4] was determined as 5.69 µM. In addition, the IC50 in [5] is > 50 µM. For the same compound, the IC50 in data set [6] was > 50 µM. In data set [7], the “metabolic stability (halftime in minutes), Dog” value (shortened to “metabolic stability … Dog”) turned out to be 69.8 min; the “metabolic stability (halftime in minutes), Mouse” value (shortened to “metabolic stability … Mouse”) turned out to be 17.9 min; the “metabolic stability (halftime in minutes), Monkey” value (“metabolic stability … Monkey” for short) was found to be 6.4 min; the “metabolic stability (halftime in minutes), Rat” value (“metabolic stability … Rat” for short) is 67.3 min. In addition, in [7], the “metabolic stability (halftime in minutes), Human” value (from here on “metabolic stability … Human”) was found to be 13.4 min. In [8], this compound showed an AUC of 6480 ± 703 ng·h/mL, a C0 of 1070 ± 34.4 ng/mL, a clearance of 1.85 ± 0.28 mL/min/kg and a half-life of 14.8 ± 0.57 h.
For `CCc1nn2cc(F)c(N3CCN(CC(=O)N4CC(O)C4)CC3)cc2c1N(C)c1nc(-c2ccc(F)cc2)c(C#N)s1` [Example 101, 2-[[2-ethyl-6-fluoro-5-[4-[2-(3-hydroxyazetidin-1-yl)-2-oxo-ethyl]piperazin-1-yl]pyrazolo[1,5-a]pyridin-3-yl]-methyl-amino]-4-(4-fluorophenyl)thiazole-5-carbonitrile], the IC50 in data set [1] (setting [10]) is ≤ 0.1 µM; in data set [1] (setting [11]) it was ≤ 0.1 µM; in data set [2], > 50 µM; in data set [3], 45.5 µM; in [4], 17.3 µM; in data set [5], > 50 µM. In addition, the IC50 in data set [6] is > 50 µM. Further, in data set [7], the “metabolic stability … Dog” value amounted to 71.9 min. For the same compound, the “metabolic stability … Mouse” value in data set [7] amounted to 14.0 min. The “metabolic stability … Monkey” value in data set [7] is 9.8 min. Also, the “metabolic stability … Rat” value in data set [7] turned out to be 96.6 min. The “metabolic stability … Human” value in data set [7] stood at 24.5 min. Also, the AUC came to 10700 ± 1810 ng·h/mL in data set [8] and 1990 ± 92 ng·h/mL in data set [9]. Besides, the values for the C0 in [8] and in [9] were 2290 ± 172 ng/mL and 1220 ± 166 ng/mL, respectively. Moreover, the clearance was 1.53 ± 0.27 mL/min/kg in data set [8] and 8.21 ± 0.38 mL/min/kg in data set [9]. Moreover, the half-life was 5.06 ± 0.85 h in data set [8] and 1.82 ± 0.1 h in data set [9].
For `CCc1nc2c(C)cc(N3CCN(CC(=O)N4CC(O)C4)CC3)cn2c1N(C)c1nc(-c2ccc(F)cc2)c(C#N)s1` [GLPG1690], the half-inhibitory concentration (IC50) in data set [2] is > 50 µM. Besides, the IC50 in data set [3] came to 40.2 µM. For the same compound, the IC50 in data set [4] came to 16.7 µM. In [5], the IC50 is > 50 µM. The IC50 in data set [6] was 13.5 µM. In addition, in [7], the “metabolic stability … Dog” value came to 32.1 min; the “metabolic stability … Mouse” value stood at 10.3 min; the “metabolic stability … Monkey” value turned out to be 4.8 min; the “metabolic stability … Rat” value is 9.2 min. For the same compound, the “metabolic stability … Human” value in data set [7] was found to be 10.8 min. Also, in data set [8], the exposure (AUC) amounted to 8650 ± 328 ng·h/mL, the C0 was 5120 ± 1380 ng/mL, the clearance came to 1.91 ± 0.07 mL/min/kg and the half-life is 2.11 ± 1.23 h. In [9], this compound had an AUC of 2770 ± 246 ng·h/mL, a C0 of 4210 ± 1150 ng/mL, a clearance of 6.02 ± 0.51 mL/min/kg and a half-life of 1.41 ± 0.19 h.
As for `CCn1nc2ncc(N3CC4(CN(C(=O)C5CCOCC5)C4)C3)cc2c1N(C)c1nc(-c2ccc(F)cc2)c(C#N)s1` [Compound 118, 2-((2-ethyl-5-(6-(tetrahydro-2H-pyran-4-carbonyl)-2,6-diazaspiro[3.3]heptan-2-yl)-2H-pyrazolo[3,4-b]pyridin-3-yl)(methyl)amino)-4-(4-fluorophenyl)thiazole-5-carbonitrile], the IC50 in data set [1] (setting [10]) was ≤ 0.1 µM; in [1] (setting [11]) it was ≤ 0.1 µM; in data set [2], > 50 µM; in [3], > 50 µM; in data set [4] it was 15.9 µM; in data set [5] it was > 50 µM. Moreover, the IC50 in [6] is > 50 µM. For the same compound, in data set [7], the “metabolic stability … Dog” value is >145 min. Moreover, the “metabolic stability … Mouse” value in data set [7] is 58.5 min. The “metabolic stability … Monkey” value in [7] is 21.3 min. Besides, the “metabolic stability … Rat” value in [7] is >145 min. In addition, the “metabolic stability … Human” value in data set [7] was found to be 75.4 min. For the same compound, the exposure (AUC) in data set [8] stood at 2190 ± 378 ng·h/mL; in [9], 2640 ± 473 ng·h/mL. Further, the C0 turned out to be 786 ± 62 ng/mL in data set [8] and 993 ± 8.6 ng/mL in data set [9]. For the same compound, the clearance in data set [8] came to 7.68 ± 1.2 mL/min/kg; in data set [9], 6.06 ± 1.2 mL/min/kg. The half-life is 3.35 ± 0.6 h in data set [8] and 6.59 ± 1.5 h in data set [9].
